We go through 13 compounds from US12509447B2, “Small molecule compound” (Technoderma Medicines Pte Ltd, priority 2019, dated 2025).

The term IC50 denotes the point on the concentration scale where inhibition reaches its midpoint. Read a low IC50 as greater potency in that assay.

Common to all, as to assay type: biochemical
One test concerns the target Tyk2 (Homo sapiens, UniProt P29597). Nature of the test: Inhibition of JAK kinase activity, EZ Reader microfluidic phosphorylation of peptide substrate: Tyk2. The settings on record: Tyk2 kinase 1 nM; highest final concentration 10 μM, 1:3 serial dilution, 8 points, duplicates. An excerpt:
(§1) EZ Reader available from PerkinElmer can be used for detecting the phosphorylation of polypeptide substrates catalyzed by kinases. This device is based on microfluidic separation technology, and can directly detect fluorescence labeled substrates and products. The separation step is achieved in a microfluidic chip by controlling the pressure and electric field intensity. In a kinase experiment, the product conversion rate is generally controlled at 20-30%. This biological assay method is used for identifying the inhibitory effect of the compounds on JAK.
(§2) The compound powder was dissolved in DMSO, sealed and stored in a refrigerator at −20° C. The in-house compound Ref1 was used as a positive control for testing of JAK1, JAK2 and Tyk2, and Ref2 was used as a positive control for testing of JAK3.
(§3) • S2.1. 1M HEPES buffer: 0.5M HEPES free acid and 0.5M HEPES sodium salt are weighed, added into ultrapure water for dissolution, brought to a desired volume, filtered and stored in a refrigerator at 4° C. • S2.2. 40 mM ATP solution: dissolved in a 50 mM HEPES buffer solution, prepared into 40 mM, aliquoted, and cryopreserved in a refrigerator at −20° C. • S2.3. 0.5% Tween 20: 100% Tween 20 was diluted with ultrapure water, and stored in a refrigerator at 4° C. • S2.4. 35% bovine serum albumin: a 35% bovine serum albumin solution is prepared in ultrapure water, aliquoted, and stored in a refrigerator at −20° C. • S2.5. 1M dithiothreitol solution: dithiothreitol is formulated into a 1M solution with ultrapure water, aliquoted, and stored in a refrigerator at −20° C. • S2.6. 0.5 mM Jaktide Peptide substrate solution: it is dissolved in 50 mM HEPES to 0.5 mM, aliquoted, and stored in a refrigerator at −20° C. • S2.7. 0.5 mM IRStide Peptide substrate solution: it is dissolved in 50 mM HEPES to 0.5 mM, aliquoted, and stored in a refrigerator at −20° C. • S2.8. Assay Buffer: 20 mM HEPES buffer, pH 7.4, 10 mM magnesium chloride, 0.01% bovine serum albumin BSA, 0.0005% Tween-20, and a 1 mM dithiothreitol solution. • S2.9. Stop Buffer: 180 mM HEPES buffer, 20 mM ethylenediamine tetraacetic acid (EDTA), and 0.2% Coating Reagent 3. • S2.10. Separation Buffer: 100 mM HEPES buffer, 10 mM EDTA, 0.0005% Tween 20, 0.1% Coating Reagent 3, and 1% dimethyl sulfoxide. 3. Experimental Procedures • S3.1. Preparation of compound plate
(§4) The compound is dissolved in dimethyl sulfoxide to 10 mM, a certain volume is taken and diluted to 0.6 mM, 10 μl of the diluted 0.6 mM solution is taken and added into a 384 microplate or 1:3 serial dilution, with a total of 8 concentration points. • S3.2. Compound layout
(§5) • positive control (HPE1): Ref1, final concentration: 10 μM • positive control (HPE1): Ref2, final concentration: 10 μM • negative control (ZPE): DMSO, with a final concentration of 1.6% • Compound: the highest final concentration at 10 μM, 1:3 serial dilution, with 8 concentration points and in duplicates. 4. Experimental operation steps • S4.1. the experimental plate was added with 250 nl of the compound per well with ECHO, and centrifuged at 1,000 rpm for 1 minute; • S4.2. the precipitate was added with 5 μl of the experimental buffer, and shaken for several seconds to fully dissolve the compound; • S4.3. the solution was added with 5 μl of a 3× substrate solution, as well as 5 μl of a 3× kinase solution, and centrifuged at 800 rpm for 1 minute; • S4.4. The final concentrations of JAK1, JAK2, JAK3 and Tyk2 kinases in the reaction system are 20, 1, 1 and 1 nM, respectively. • S4.5. the reaction system is incubated at room temperature, wherein the incubation time of each kinase is different, and there are differences in incubation time of different batches of kinases. • S4.6. When the reaction reaches 20%-30%, the reaction system is added with 15 μl of the stop buffer to terminate the reaction, and centrifuged at 1,000 rpm for 2 minutes. • S4.7. The precipitate was placed onto a EZ Reader for plate reading. • S4.8. […]

The target of the next test is JAK1 (Homo sapiens, UniProt P23458). In words: Inhibition of JAK kinase activity, EZ Reader microfluidic phosphorylation of peptide substrate: JAK1. The settings on record: JAK1 kinase 20 nM; highest final concentration 10 μM, 1:3 serial dilution, 8 points, duplicates.
Description: as §1, §2, §3, §4, §5

The target in a further test is JAK2 (Homo sapiens, UniProt O60674). Nature of the test: Inhibition of JAK kinase activity, EZ Reader microfluidic phosphorylation of peptide substrate: JAK2. The settings on record: JAK2 kinase 1 nM; highest final concentration 10 μM, 1:3 serial dilution, 8 points, duplicates.
Description: as §1, §2, §3, §4, §5

The next test deals with T1, JAK3 (Homo sapiens, UniProt P52333).
T1 sequence (P52333 1-1124): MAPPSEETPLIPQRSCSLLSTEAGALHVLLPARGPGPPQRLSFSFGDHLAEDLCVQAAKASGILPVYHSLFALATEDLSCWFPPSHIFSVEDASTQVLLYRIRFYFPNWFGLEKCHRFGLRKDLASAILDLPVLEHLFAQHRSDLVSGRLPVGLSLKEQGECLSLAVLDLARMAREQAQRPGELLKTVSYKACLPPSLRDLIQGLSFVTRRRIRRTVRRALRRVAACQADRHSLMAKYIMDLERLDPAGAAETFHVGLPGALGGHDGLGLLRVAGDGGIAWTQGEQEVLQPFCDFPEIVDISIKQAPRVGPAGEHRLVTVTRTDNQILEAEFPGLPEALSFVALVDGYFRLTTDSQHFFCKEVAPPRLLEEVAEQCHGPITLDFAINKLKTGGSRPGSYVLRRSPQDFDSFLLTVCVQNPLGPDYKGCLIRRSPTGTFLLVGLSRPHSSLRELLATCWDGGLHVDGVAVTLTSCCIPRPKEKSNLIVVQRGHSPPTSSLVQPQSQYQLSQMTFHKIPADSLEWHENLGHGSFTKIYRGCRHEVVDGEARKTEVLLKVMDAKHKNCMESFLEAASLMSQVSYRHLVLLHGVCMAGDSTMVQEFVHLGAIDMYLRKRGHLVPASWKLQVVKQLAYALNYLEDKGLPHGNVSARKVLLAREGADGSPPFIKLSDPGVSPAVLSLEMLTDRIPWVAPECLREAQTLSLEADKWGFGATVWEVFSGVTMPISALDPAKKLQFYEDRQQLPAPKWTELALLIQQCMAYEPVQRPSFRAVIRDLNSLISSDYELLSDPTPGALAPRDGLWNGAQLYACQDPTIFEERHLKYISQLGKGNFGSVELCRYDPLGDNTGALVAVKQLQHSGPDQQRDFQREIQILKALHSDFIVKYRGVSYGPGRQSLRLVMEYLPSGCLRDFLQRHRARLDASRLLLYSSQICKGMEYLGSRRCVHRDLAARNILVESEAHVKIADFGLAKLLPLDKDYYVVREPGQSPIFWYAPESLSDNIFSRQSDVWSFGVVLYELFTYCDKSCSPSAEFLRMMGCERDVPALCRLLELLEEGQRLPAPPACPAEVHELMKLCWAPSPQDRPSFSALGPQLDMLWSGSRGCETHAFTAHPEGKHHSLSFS
In words: Inhibition of JAK kinase activity, EZ Reader microfluidic phosphorylation of peptide substrate: JAK3. The settings on record: JAK3 kinase 1 nM; highest final concentration 10 μM, 1:3 serial dilution, 8 points, duplicates.
Description: as §1, §2, §3, §4, §5

Tyk2, sequence (P29597 whole entry): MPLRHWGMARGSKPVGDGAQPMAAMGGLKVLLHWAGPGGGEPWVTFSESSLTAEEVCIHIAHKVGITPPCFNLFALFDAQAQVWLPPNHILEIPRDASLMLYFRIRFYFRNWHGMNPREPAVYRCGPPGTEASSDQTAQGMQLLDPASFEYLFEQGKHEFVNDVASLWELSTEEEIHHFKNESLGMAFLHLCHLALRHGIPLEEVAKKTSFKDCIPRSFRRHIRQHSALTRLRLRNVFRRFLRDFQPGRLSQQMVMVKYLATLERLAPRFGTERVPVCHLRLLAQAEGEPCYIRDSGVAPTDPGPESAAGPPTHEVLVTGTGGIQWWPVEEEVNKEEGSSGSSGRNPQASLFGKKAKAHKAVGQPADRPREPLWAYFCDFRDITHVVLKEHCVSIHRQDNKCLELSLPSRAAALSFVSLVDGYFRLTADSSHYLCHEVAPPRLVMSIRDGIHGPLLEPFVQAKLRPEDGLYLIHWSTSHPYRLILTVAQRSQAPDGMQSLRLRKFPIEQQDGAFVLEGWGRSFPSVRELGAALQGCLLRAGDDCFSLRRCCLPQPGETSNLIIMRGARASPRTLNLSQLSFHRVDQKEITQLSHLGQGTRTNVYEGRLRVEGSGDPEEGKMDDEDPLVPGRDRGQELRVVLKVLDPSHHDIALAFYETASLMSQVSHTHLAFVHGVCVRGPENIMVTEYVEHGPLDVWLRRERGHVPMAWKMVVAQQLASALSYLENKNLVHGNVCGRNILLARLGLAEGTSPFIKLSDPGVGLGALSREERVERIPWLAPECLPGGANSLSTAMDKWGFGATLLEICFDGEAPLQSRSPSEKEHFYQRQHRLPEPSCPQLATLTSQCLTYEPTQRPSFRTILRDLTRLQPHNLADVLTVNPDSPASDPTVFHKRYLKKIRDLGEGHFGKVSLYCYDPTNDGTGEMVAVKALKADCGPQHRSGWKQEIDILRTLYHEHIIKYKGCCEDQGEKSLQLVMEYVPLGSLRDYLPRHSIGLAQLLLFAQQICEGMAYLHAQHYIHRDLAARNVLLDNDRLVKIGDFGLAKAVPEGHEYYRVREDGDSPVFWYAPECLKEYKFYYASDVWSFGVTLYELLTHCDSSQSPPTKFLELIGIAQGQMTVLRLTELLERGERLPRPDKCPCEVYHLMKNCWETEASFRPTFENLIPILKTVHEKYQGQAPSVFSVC
JAK2, sequence (O60674 whole entry): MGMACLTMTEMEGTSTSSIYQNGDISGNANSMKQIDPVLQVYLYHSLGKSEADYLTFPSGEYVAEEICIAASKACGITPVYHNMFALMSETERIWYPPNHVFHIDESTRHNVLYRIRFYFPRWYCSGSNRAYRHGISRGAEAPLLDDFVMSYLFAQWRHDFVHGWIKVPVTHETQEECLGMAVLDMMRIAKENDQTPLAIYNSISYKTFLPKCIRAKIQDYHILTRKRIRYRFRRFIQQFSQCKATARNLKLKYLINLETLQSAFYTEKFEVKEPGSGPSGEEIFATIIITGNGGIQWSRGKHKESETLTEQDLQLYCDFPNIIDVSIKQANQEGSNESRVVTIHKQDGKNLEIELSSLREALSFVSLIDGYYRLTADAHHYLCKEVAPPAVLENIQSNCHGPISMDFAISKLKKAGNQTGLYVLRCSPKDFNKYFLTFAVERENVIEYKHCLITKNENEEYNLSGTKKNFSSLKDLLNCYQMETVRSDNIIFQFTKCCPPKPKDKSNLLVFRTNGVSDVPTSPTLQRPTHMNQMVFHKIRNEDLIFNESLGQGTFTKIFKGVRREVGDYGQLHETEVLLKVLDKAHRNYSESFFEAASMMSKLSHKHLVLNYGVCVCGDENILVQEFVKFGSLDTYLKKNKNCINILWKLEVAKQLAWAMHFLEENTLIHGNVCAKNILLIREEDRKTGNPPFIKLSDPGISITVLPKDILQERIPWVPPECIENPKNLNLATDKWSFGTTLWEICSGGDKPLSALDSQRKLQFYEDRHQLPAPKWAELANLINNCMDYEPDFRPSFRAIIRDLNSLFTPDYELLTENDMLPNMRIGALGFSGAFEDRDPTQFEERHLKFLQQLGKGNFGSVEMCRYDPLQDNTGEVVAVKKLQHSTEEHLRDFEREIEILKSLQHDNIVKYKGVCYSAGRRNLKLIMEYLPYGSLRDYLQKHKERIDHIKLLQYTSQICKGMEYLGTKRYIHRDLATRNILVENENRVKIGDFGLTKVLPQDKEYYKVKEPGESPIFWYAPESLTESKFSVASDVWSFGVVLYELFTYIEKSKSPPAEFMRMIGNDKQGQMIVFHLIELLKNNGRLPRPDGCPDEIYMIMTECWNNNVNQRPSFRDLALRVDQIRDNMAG
JAK1, sequence (P23458 whole entry): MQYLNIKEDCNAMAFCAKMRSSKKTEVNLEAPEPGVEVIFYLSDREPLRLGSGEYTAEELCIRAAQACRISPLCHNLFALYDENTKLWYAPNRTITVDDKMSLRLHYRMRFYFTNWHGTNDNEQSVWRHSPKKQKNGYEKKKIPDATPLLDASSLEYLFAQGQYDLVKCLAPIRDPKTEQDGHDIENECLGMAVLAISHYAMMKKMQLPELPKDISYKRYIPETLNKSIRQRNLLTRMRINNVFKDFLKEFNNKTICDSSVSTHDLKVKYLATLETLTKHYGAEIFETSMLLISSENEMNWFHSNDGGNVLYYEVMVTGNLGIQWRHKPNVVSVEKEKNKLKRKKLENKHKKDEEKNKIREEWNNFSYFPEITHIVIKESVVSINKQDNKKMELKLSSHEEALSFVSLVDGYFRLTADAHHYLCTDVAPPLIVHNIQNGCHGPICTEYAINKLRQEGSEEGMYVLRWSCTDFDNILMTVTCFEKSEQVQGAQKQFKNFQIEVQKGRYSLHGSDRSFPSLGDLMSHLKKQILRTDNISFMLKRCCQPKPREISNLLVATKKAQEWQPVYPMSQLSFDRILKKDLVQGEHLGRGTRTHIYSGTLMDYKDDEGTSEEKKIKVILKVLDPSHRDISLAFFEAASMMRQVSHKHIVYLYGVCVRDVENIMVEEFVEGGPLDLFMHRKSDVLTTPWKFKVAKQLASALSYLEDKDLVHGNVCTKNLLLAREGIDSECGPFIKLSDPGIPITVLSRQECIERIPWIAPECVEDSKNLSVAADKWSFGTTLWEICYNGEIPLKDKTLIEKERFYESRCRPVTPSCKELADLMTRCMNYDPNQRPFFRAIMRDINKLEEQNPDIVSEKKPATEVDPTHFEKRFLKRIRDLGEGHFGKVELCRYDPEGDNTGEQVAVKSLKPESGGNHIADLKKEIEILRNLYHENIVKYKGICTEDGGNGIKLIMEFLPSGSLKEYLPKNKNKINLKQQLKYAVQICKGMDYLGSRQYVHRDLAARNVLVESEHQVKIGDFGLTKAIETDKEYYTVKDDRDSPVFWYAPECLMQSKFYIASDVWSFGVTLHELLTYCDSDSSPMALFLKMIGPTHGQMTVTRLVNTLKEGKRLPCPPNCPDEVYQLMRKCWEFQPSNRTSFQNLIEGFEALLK

As for `Cn1cc(Nc2cc(-c3cnn(C4CN(C(=O)CC(F)(F)F)C4)c3)ccn2)cn1` [TDM-180636, 3,3,3-trifluoro-1-(3-(4-(2-((1-methyl-1H-pyrazol-4-yl)amino)pyridin-4-yl)-1H-pyrazol-1-yl)azetidin-1-yl)propan-1-one], the IC50 against Tyk2, against JAK1, at JAK2 and against JAK3 was at least 10 µM in each case.
With `Cn1cc(Nc2cc(-c3cnn(C4CN(C(=O)C5CC5)C4)c3)ccn2)cn1` [TDM-180637, cyclopropyl(3-(4-(2-((1-methyl-1H-pyrazol-4-yl)amino)pyridin-4-yl)-1H-pyrazol-1-yl)azetidin-1-yl)ketone], the IC50 against Tyk2, against JAK1, on JAK2 and at JAK3 was at least 10 µM throughout.
For `Cn1cc(Nc2cc(-c3cnn(C4CN(C(=O)C5CC5(F)F)C4)c3)ccn2)cn1` (centres unmarked) [TDM-180638], the IC50 on Tyk2, on JAK1, against JAK2 and against JAK3 was at least 10 µM in each case.
As to `CCC(=O)N1CC(n2cc(-c3ccnc(Nc4cnn(C)c4)c3)cn2)C1` [TDM-180639, 1-(3-(4-(2-((1-methyl-1H-pyrazol-4-yl)amino)pyridin-4-y1)-1H-pyrazol-1-yl)azetidin-1-yl)propan-1-one], the IC50 on Tyk2, on JAK1, on JAK2 and against JAK3 was at least 10 µM each time.
For the compound `CCCC(=O)N1CC(n2cc(-c3ccnc(Nc4cnn(C)c4)c3)cn2)C1` [TDM-180640, 1-(3-(4-(2-((1-methyl-1H-pyrazol-4-yl)amino)pyridin-4-yl)-1H-pyrazol-1-yl)azetidin-1-yl)butan-1-one], the IC50 against Tyk2, against JAK1, at JAK2 and against JAK3 was at least 10 µM in each case.
Regarding `Cn1cc(Nc2cc(-c3cnn(C4CN(C(=O)CC#N)C4)c3)ccn2)cn1` [TDM-180641, 3-(3-(4-(2-((1-methyl-1H-pyrazol-4-yl)amino)pyridin-4-yl)-1H-pyrazol-1-yl)azetidin-1-yl)-3-oxypropionitrile], the IC50 on Tyk2, at JAK1, on JAK2 and against JAK3 was at least 10 µM each time.
With `COC(=O)CCS(=O)(=O)N1CC(CC#N)(n2cc(-c3ccnc(Nc4cnn(C)c4)n3)cn2)C1` [TDM-180927, Ethyl methyl-3-((3-(cyanomethyl)-3-(4-(2-((1-methyl-1H-pyrazol-4-yl)amino)pyrimidin-4-yl)-1H-pyrazol-1-yl)azetidineazetidin-1-yl)sulfonyl)propionate], the IC50 against Tyk2 and against JAK1 was 0.1 to 1 µM each time.
Consider `Cn1cc(Nc2nccc(-c3cnn(C4(CC#N)CN(S(=O)(=O)CC(F)(F)F)C4)c3)n2)cn1` [TDM-180928, 2-(3-(4-(2-((1-methyl-1H-pyrazol-4-yl)amino)pyrimidin-4-yl)-1H-pyrazol-1-yl)-1-((2,2,2-trifluoroethyl)sulfonyl)azetidin-3-yl)acetonitrile], for which the IC50 against Tyk2 is under 0.1 µM; at JAK1, 0.1 to 1 µM.
`COC(=O)CS(=O)(=O)N1CC(CC#N)(n2cc(-c3ccnc(Nc4cnn(C)c4)n3)cn2)C1` [TDM-180930]: the IC50 on Tyk2 and against JAK1 was 0.1 to 1 µM in each case.
As to `Cn1cc(Nc2nccc(-c3cnn(C4(CC#N)CN(S(=O)(=O)CC5CC5)C4)c3)n2)cn1` [TDM-180931, 2-(1-((cyclopropylmethyl)sulfonyl)-3-(4-(2-((1-methyl-1H-pyrazol-4-yl)amino)pyrimidin-4-yl)-1H-pyrazol-1-yl)azetidin-3-yl)acetonitrile], the half-inhibitory concentration (IC50) against Tyk2 and against JAK1 was 0.1 to 1 µM throughout.
Regarding `CC(C)S(=O)(=O)N1CC(CC#N)(n2cc(-c3ccnc(Nc4cnn(C)c4)n3)cn2)C1` [TDM-180932, 2-(1-(isopropylsulfonyl)-3-(4-(2-((1-methyl-1H-pyrazol-4-yl)amino)pyrimidin-4-yl)-1H-pyrazol-1-yl)azetidinpyridin-3-yl)acetonitrile], the IC50 on Tyk2 and against JAK1 was 0.1 to 1 µM throughout.
With `Cn1cc(Nc2nccc(-c3ccn(C4(CC#N)CN(C(=O)[C@@H]5CC5(F)F)C4)c3)n2)cn1` [TDM-180937, (S)-2-(1-(2,2-difluorocyclopropane-1-carbonyl)-3-(3-(2-((1-methyl-1H-pyrazol-4-yl)amino)pyrimidin-4-yl)-1H-pyrrol-1-yl)azetidin-3-yl)acetonitrile], the IC50 at Tyk2 and against JAK1 was under 0.1 µM in each case.
Take `Cn1cc(Nc2nccc(-c3ccn(C4(CC#N)CN(C(=O)[C@H]5CC5(F)F)C4)c3)n2)cn1` [TDM-180938, (R)-2-(1-(2,2-difluorocyclopropane-1-carbonyl)-3-(3-(2-((1-methyl-1H-pyrazol-4-yl)amino)pyrimidin-4-yl)-1H-pyrrol-1-yl)azetidin-3-yl)acetonitrile]: the IC50 at Tyk2 and against JAK1 was 0.1 to 1 µM each time.
